Measurements reported in PMC10877631, “Retinylidene chromophore hydrolysis from mammalian visual and non-visual opsins” (The Journal of Biological Chemistry, 2024).

Legend:
hRed-cone opsin = target: T1, hRed-cone opsin (Homo sapiens, UniProt P04000); experiment: UV-Vis pigment spectrum; NaBH4 trapping and LC-MS/MS of retinyl peptide and retinyl-Lys; format: binding; settings: covalent Schiff base to helix VII Lys; dark state; LMNG
T1 construct: gene OPN1LW; recombinant, purified in LMNG; details only in supplement
T1 sequence (P04000 1-364): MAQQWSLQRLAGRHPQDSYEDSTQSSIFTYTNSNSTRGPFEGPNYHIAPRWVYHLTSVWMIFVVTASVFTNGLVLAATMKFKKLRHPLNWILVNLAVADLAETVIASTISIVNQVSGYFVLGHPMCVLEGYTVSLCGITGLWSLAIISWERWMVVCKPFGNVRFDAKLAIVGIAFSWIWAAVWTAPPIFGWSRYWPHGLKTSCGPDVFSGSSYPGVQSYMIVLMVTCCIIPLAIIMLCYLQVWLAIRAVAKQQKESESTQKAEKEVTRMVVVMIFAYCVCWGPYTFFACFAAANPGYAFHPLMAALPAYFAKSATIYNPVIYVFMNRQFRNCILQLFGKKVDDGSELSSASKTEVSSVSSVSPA

bRho = target: T2, bRho (Bos taurus, UniProt P02699); experiment: as above; format: binding; settings: covalent Schiff base to helix VII Lys; dark state; LMNG
T2 construct: gene RHO; native, from bovine rod outer segments, purified in LMNG
T2 sequence (P02699 whole entry): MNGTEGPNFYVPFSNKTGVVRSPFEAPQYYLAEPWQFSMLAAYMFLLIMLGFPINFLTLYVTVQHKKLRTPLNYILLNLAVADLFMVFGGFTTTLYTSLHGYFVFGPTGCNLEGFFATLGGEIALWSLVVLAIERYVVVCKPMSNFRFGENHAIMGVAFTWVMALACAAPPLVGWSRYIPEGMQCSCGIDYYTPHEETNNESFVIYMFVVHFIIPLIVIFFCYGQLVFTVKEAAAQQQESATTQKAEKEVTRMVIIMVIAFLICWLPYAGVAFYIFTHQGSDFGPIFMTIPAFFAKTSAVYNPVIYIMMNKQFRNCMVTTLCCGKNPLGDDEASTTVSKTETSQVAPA

hBlue-cone opsin = target: T3, hBlue-cone opsin (Homo sapiens, UniProt P03999); experiment: as above; format: binding; settings: covalent Schiff base to helix VII Lys; dark state; LMNG
T3 construct: gene OPN1SW; recombinant, purified in LMNG; details only in supplement
T3 sequence (P03999 1-345): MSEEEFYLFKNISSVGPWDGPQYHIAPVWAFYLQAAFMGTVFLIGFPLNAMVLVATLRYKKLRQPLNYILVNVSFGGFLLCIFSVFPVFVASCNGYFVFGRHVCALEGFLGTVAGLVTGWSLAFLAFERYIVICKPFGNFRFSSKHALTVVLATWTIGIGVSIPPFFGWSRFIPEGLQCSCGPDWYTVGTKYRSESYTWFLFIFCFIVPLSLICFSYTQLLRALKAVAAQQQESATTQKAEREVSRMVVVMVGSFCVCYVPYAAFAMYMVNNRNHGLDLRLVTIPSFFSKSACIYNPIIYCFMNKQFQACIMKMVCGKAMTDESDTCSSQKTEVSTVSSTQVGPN

[1] = target: T4, native bRGR in bRPE microsomal membranes (Bos taurus, UniProt P47803); experiment: NaBH4 trapping, HPLC and LC-MS/MS after illumination; format: biochemical; settings: photoisomerization at 530 nm, then Schiff-base hydrolysis; pH 7.4, 140 mM NaCl; native microsomes
T4 construct: gene RGR; native, untagged, in bovine RPE microsomal membranes; chromophore site given as Lys256
T4 sequence (P47803 1-291): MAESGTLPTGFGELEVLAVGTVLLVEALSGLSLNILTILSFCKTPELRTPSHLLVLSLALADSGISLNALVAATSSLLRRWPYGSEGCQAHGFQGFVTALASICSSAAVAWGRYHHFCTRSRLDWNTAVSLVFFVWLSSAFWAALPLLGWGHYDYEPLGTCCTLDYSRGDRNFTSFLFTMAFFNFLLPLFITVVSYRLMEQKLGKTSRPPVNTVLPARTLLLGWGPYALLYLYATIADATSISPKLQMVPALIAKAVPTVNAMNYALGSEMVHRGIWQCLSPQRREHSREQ

[2] = target: T4, native bRGR in bRPE microsomal membranes; experiment: NaBH4 trapping, proteinase K or pronase digestion, LC-MS/MS; format: binding; settings: covalent Schiff base at Lys256; native bovine RPE microsomes; before illumination
[3] = target: T5, bRGR (recombinant, 1D4-tagged) (Bos taurus, UniProt P47803); experiment: UV-Vis pigment spectrum; NaBH4 trapping and LC-MS/MS of retinyl peptide; format: binding; settings: covalent Schiff base at Lys256; LMNG micelles; before illumination
T5 construct: gene RGR; chromophore site given as Lys256
T5 sequence (P47803 1-291): T4 sequence (P47803 1-291)

Row | SMILES | UV-Vis pigment spectrum; NaBH4 trapping and LC-MS/MS of retinyl peptide and reti (hRed-cone opsin) | UV-Vis pigment spectrum; NaBH4 trapping and LC-MS/MS of retinyl peptide and reti (bRho) | UV-Vis pigment spectrum; NaBH4 trapping and LC-MS/MS of retinyl peptide and reti (hBlue-cone opsin) | NaBH4 trapping, HPLC and LC-MS/MS after illumination [1] | NaBH4 trapping, proteinase K or pronase digestion, LC-MS/MS [2] | UV-Vis pigment spectrum; NaBH4 trapping and LC-MS/MS of retinyl peptide [3]
1 | CC1=C(/C=C/C(C)=C/C=C\C(C)=C\C=O)C(C)(C)CCC1 [11-cis-retinal] | the resultant N^ε-retinyl-Lys was predominantly in the 11-cis configuration | the resultant N^ε-retinyl-Lys was predominantly in the 11-cis configuration | the resultant N^ε-retinyl-Lys was predominantly in the 11-cis configuration | rapid hydrolytic production of 11-cis-retinal by bRGR in native membranes was recapitulated in this study | – | –
2 | CC1=C(/C=C/C(C)=C/C=C/C(C)=C/C=O)C(C)(C)CCC1 [all-trans-retinal] | – | – | – | – | Microsomal bRGR reconstituted with slight excess of all-trans-retinal was analyzed by LC-MS/MS | recombinantly produced bRGR adducted with all-trans-retinal was immunopurified in lauryl maltose neopentyl glycol (LMNG) micelles
